Source: patent EP0908457B1, “3-(1,2-benzisothiazol- and isoxazol-5-Y1)-2,4(1H,3H)-pyrimidinedione or thione and 3-(1,2-benzisothiazol- and isoxazol-5-y1)-4(3H)-pyrimidinone or thione herbicidal agents” (BASF AKTIENGESELLSCHAFT, priority 1997, dated 1999)

Columns and labels:
Type in all cases: in vivo
[1] = tested on: Echinochloa oryzoides (Ard.) Fritsch.; assay: Preemergence weed control under flooded paddy conditions, ECHORC (Watergrass (Calif.)); details: flooded paddy; for ECHORC: herbicidal effect rating 0-9, three to four weeks after treatment; as to herbicidal effect rating, ECHORC: meaning of each grade not given here
Sagittaria pygmaea, L. = assay: Preemergence weed control under flooded paddy conditions, SAGPY (Arrowhead (Pygmaea)); details: flooded paddy; for SAGPY: herbicidal effect rating 0-9, three to four weeks after treatment; as to herbicidal effect rating, SAGPY: meaning of each grade not given here
Cyperus iria = assay: Preemergence weed control under flooded paddy conditions, CYPIR (Rice Flatsedge); details: flooded paddy; for CYPIR: herbicidal effect rating 0-9, three to four weeks after treatment; as to herbicidal effect rating, CYPIR: meaning of each grade not given here
[2] = tested on: Monochoria vaginalis, Presl.; assay: Preemergence weed control under flooded paddy conditions, MOOVA (Monochoria); details: flooded paddy; for MOOVA: herbicidal effect rating 0-9, three to four weeks after treatment; as to herbicidal effect rating, MOOVA: meaning of each grade not given here
[3] = tested on: Cyperus serotinus, Rottb.; assay: Preemergence weed control under flooded paddy conditions, CYPSE (Flatsedge); details: for CYPSE: herbicidal effect rating 0-9, three to four weeks after treatment; as to herbicidal effect rating, CYPSE: meaning of each grade not given here
[4] = 0.0320 kg/ha, preemergence weeds
[5] = 0.0620 kg/ha, preemergence weeds
[6] = 0.1250 kg/ha, preemergence weeds
[7] = 0.2500 kg/ha, preemergence weeds
[8] = 0.0320 kg/ha, preemergence, rated three to four weeks after treatment
[9] = 0.0620 kg/ha, preemergence, rated three to four weeks after treatment
[10] = 0.1250 kg/ha, preemergence, rated three to four weeks after treatment
[11] = 0.2500 kg/ha, preemergence, rated three to four weeks after treatment
[12] = 0.0313 kg/ha, preemergence weeds, rated three to four weeks after treatment
[13] = 0.0625 kg/ha, preemergence weeds, rated three to four weeks after treatment
[14] = 0.1250 kg/ha, preemergence weeds, rated three to four weeks after treatment
[15] = 0.2500 kg/ha, preemergence weeds, rated three to four weeks after treatment
[16] = Rate 0.0320 kg/ha, preemergence, rated 3-4 weeks after treatment
[17] = Rate 0.0620 kg/ha, preemergence, rated 3-4 weeks after treatment
[18] = Rate 0.1250 kg/ha, preemergence, rated 3-4 weeks after treatment
[19] = Rate 0.2500 kg/ha, preemergence, rated 3-4 weeks after treatment
[20] = 0.0313 kg/ha, preemergence, rated three to four weeks after treatment
[21] = 0.0625 kg/ha, preemergence, rated three to four weeks after treatment

## 2,4(1H,3H)-Pyrimidinedione, 1-methyl-3-[(2-methylbutyryl)-1,2-benzisothiazol-5-yl]-6-(trifluoromethyl)- [Example 433]
[1]; [4]
  ECHORC: 8.0
[1]; [5]
  ECHORC: 9.0
[1]; [6]
  ECHORC: 9.0
[1]; [7]
  ECHORC: 9.0
Sagittaria pygmaea, L.; [4]
  SAGPY: 2.0
Sagittaria pygmaea, L.; [5]
  SAGPY: 4.5
Sagittaria pygmaea, L.; [6]
  SAGPY: 6.0
Sagittaria pygmaea, L.; [7]
  SAGPY: 7.0
Cyperus iria; [4]
  CYPIR: 5.5
Cyperus iria; [5]
  CYPIR: 8.5
Cyperus iria; [6]
  CYPIR: 9.0
Cyperus iria; [7]
  CYPIR: 9.0
[2]; [4]
  MOOVA: 8.5
[2]; [5]
  MOOVA: 9.0
[2]; [6]
  MOOVA: 9.0
[2]; [7]
  MOOVA: 9.0
[3]; [4]
  CYPSE: 0.0
[3]; [5]
  CYPSE: 6.0
[3]; [6]
  CYPSE: 7.5
[3]; [7]
  CYPSE: 7.5

## 2,4(1H,3H)-Pyrimidinedione, 3-[3-(hydroxymethyl)-1,2-benzisothiazol-5-yl]-1-methyl-6-(trifluoromethyl)-, chlorophenylacetate (ester) [Example 504]
[1]; [8]
  ECHORC herbicidal rating: 2.0
[1]; [9]
  ECHORC herbicidal rating: 3.0
[1]; [10]
  ECHORC herbicidal rating: 6.0
[1]; [11]
  ECHORC herbicidal rating: 7.0
Sagittaria pygmaea, L.; [8]
  SAGPY herbicidal rating: 0.0
Sagittaria pygmaea, L.; [11]
  SAGPY herbicidal rating: 7.0
Cyperus iria; [8]
  CYPIR herbicidal rating: 4.0
Cyperus iria; [9]
  CYPIR herbicidal rating: 7.0
Cyperus iria; [10]
  CYPIR herbicidal rating: 9.0
Cyperus iria; [11]
  CYPIR herbicidal rating: 9.0
[2]; [8]
  MOOVA herbicidal rating: 6.0
[2]; [9]
  MOOVA herbicidal rating: 8.0
[2]; [10]
  MOOVA herbicidal rating: 9.0
[2]; [11]
  MOOVA herbicidal rating: 9.0
[3]; [8]
  CYPSE herbicidal rating: 0.0
[3]; [9]
  CYPSE herbicidal rating: 0.0
[3]; [10]
  CYPSE herbicidal rating: 0.0

## Cc1ccc(OCC(=O)OC(C)C(=O)O)c(-c2nsc3ccc(-n4c(=O)cc(C(F)(F)F)n(C)c4=O)cc23)c1 (racemic) [Example 190, 2-{{2-{5-[3,6-Dihydro-3-methyl-2,6-dioxo-4-(trifluoromethyl)-1(2H)-pyrimidinyl]-1,2-benzisothiazol-3-yl}-p-tolyl}oxy}acetoxy}-propionic acid, DL-]
[1]; [12]
  herbicidal effect rating, ECHORC: 2.0
[1]; [13]
  herbicidal effect rating, ECHORC: 4.0
[1]; [14]
  herbicidal effect rating, ECHORC: 7.0
[1]; [15]
  herbicidal effect rating, ECHORC: 8.0
Sagittaria pygmaea, L.; [12]
  herbicidal effect rating, SAGPY: 0.0
Sagittaria pygmaea, L.; [13]
  herbicidal effect rating, SAGPY: 0.0
Sagittaria pygmaea, L.; [14]
  herbicidal effect rating, SAGPY: 0.0
Sagittaria pygmaea, L.; [15]
  herbicidal effect rating, SAGPY: 0.0
Cyperus iria; [12]
  herbicidal effect rating, CYPIR: 0.0
Cyperus iria; [13]
  herbicidal effect rating, CYPIR: 0.0
Cyperus iria; [14]
  herbicidal effect rating, CYPIR: 2.0
Cyperus iria; [15]
  herbicidal effect rating, CYPIR: 4.0
[2]; [12]
  herbicidal effect rating, MOOVA: 9.0
[2]; [13]
  herbicidal effect rating, MOOVA: 9.0
[2]; [14]
  herbicidal effect rating, MOOVA: 9.0
[2]; [15]
  herbicidal effect rating, MOOVA: 9.0
[3]; [12]
  herbicidal effect rating, CYPSE: 0.0
[3]; [13]
  herbicidal effect rating, CYPSE: 0.0
[3]; [14]
  herbicidal effect rating, CYPSE: 0.0
[3]; [15]
  herbicidal effect rating, CYPSE: 0.0

## Cc1ccc(OCC(=O)OCC2CCOC2)c(-c2nsc3ccc(-n4c(=O)cc(C(F)(F)F)n(C)c4=O)cc23)c1 (racemic) [Example 535, Acetic acid, {{2-{5-[3,6-dihydro-3-methyl-2,6-dioxo-4-(trifluoromethyl)-1(2H)-pyrimidinyl]-1,2-benzisothiazol-3-yl}-p-tolyl}oxy}-, (tetrahydro-3-furyl)methyl ester, DL-]
[1]; [16]
  herbicidal effect rating, ECHORC: 0.0
[1]; [17]
  herbicidal effect rating, ECHORC: 3.0
[1]; [18]
  herbicidal effect rating, ECHORC: 3.0
[1]; [19]
  herbicidal effect rating, ECHORC: 4.0
Sagittaria pygmaea, L.; [16]
  herbicidal effect rating, SAGPY: 0.0
Sagittaria pygmaea, L.; [17]
  herbicidal effect rating, SAGPY: 0.0
Sagittaria pygmaea, L.; [18]
  herbicidal effect rating, SAGPY: 3.0
Sagittaria pygmaea, L.; [19]
  herbicidal effect rating, SAGPY: 3.0
Cyperus iria; [16]
  herbicidal effect rating, CYPIR: 0.0
Cyperus iria; [17]
  herbicidal effect rating, CYPIR: 6.0
Cyperus iria; [18]
  herbicidal effect rating, CYPIR: 9.0
Cyperus iria; [19]
  herbicidal effect rating, CYPIR: 9.0
[2]; [16]
  herbicidal effect rating, MOOVA: 6.0
[2]; [17]
  herbicidal effect rating, MOOVA: 9.0
[2]; [18]
  herbicidal effect rating, MOOVA: 9.0
[2]; [19]
  herbicidal effect rating, MOOVA: 9.0
[3]; [16]
  herbicidal effect rating, CYPSE: 0.0
[3]; [17]
  herbicidal effect rating, CYPSE: 3.0
[3]; [18]
  herbicidal effect rating, CYPSE: 5.0
[3]; [19]
  herbicidal effect rating, CYPSE: 5.0

## CCOC(=O)C1CCC(OC(=O)COc2ccc(C)cc2-c2nsc3ccc(-n4c(=O)cc(C(F)(F)F)n(C)c4=O)cc23)CC1 (single isomer, unassigned; isomer a) [Example 524, Acetic acid, {{2-{5-[3,6-dihydro-3-methyl-2,6-dioxo-4-(trifluoromethyl)-1(2H)-pyrimidinyl]-1,2-benzisothiazol-3-yl}-p-tolyl}oxy}-, ester with ethyl 4-hydroxycyclohexanecarboxylate, isomer A]
[1]; [16]
  herbicidal effect rating, ECHORC: 7.0
[1]; [17]
  herbicidal effect rating, ECHORC: 9.0
[1]; [18]
  herbicidal effect rating, ECHORC: 9.0
[1]; [19]
  herbicidal effect rating, ECHORC: 9.0
Sagittaria pygmaea, L.; [16]
  herbicidal effect rating, SAGPY: 0.0
Sagittaria pygmaea, L.; [17]
  herbicidal effect rating, SAGPY: 0.0
Sagittaria pygmaea, L.; [18]
  herbicidal effect rating, SAGPY: 0.0
Sagittaria pygmaea, L.; [19]
  herbicidal effect rating, SAGPY: 0.0
Cyperus iria; [16]
  herbicidal effect rating, CYPIR: 2.0
Cyperus iria; [17]
  herbicidal effect rating, CYPIR: 2.0
Cyperus iria; [18]
  herbicidal effect rating, CYPIR: 4.0
Cyperus iria; [19]
  herbicidal effect rating, CYPIR: 7.0
[2]; [16]
  herbicidal effect rating, MOOVA: 9.0
[2]; [17]
  herbicidal effect rating, MOOVA: 9.0
[2]; [18]
  herbicidal effect rating, MOOVA: 9.0
[2]; [19]
  herbicidal effect rating, MOOVA: 9.0
[3]; [16]
  herbicidal effect rating, CYPSE: 0.0
[3]; [17]
  herbicidal effect rating, CYPSE: 0.0
[3]; [18]
  herbicidal effect rating, CYPSE: 2.0
[3]; [19]
  herbicidal effect rating, CYPSE: 6.0

## CCOC(=O)C1CCC(OC(=O)COc2ccc(C)cc2-c2nsc3ccc(-n4c(=O)cc(C(F)(F)F)n(C)c4=O)cc23)CC1 (single isomer, unassigned; isomer b) [Example 525, Acetic acid, {{2-{5-[3,6-dihydro-3-methyl-2,6-dioxo-4-(trifluoromethyl)-1(2H)-pyrimidinyl)-1,2-benzisothiazol-3-yl}-p-tolyl}oxy}-, ester with ethyl 4-hydroxycyclohexanecarboxylate, isomer B]
[1]; [16]
  herbicidal effect rating, ECHORC: 6.0
[1]; [17]
  herbicidal effect rating, ECHORC: 7.0
[1]; [18]
  herbicidal effect rating, ECHORC: 9.0
[1]; [19]
  herbicidal effect rating, ECHORC: 9.0
Sagittaria pygmaea, L.; [16]
  herbicidal effect rating, SAGPY: 0.0
Sagittaria pygmaea, L.; [17]
  herbicidal effect rating, SAGPY: 0.0
Sagittaria pygmaea, L.; [18]
  herbicidal effect rating, SAGPY: 0.0
Sagittaria pygmaea, L.; [19]
  herbicidal effect rating, SAGPY: 0.0
Cyperus iria; [16]
  herbicidal effect rating, CYPIR: 0.0
Cyperus iria; [17]
  herbicidal effect rating, CYPIR: 2.0
Cyperus iria; [18]
  herbicidal effect rating, CYPIR: 2.0
Cyperus iria; [19]
  herbicidal effect rating, CYPIR: 4.0
[2]; [16]
  herbicidal effect rating, MOOVA: 9.0
[2]; [17]
  herbicidal effect rating, MOOVA: 9.0
[2]; [18]
  herbicidal effect rating, MOOVA: 9.0
[2]; [19]
  herbicidal effect rating, MOOVA: 9.0
[3]; [16]
  herbicidal effect rating, CYPSE: 0.0
[3]; [17]
  herbicidal effect rating, CYPSE: 0.0
[3]; [18]
  herbicidal effect rating, CYPSE: 0.0
[3]; [19]
  herbicidal effect rating, CYPSE: 0.0

## CC(=O)OCc1nsc2ccc(-n3c(=O)cc(C(F)(F)F)n(C)c3=O)cc12 [Example 32, 3-[3-(Hydroxymethyl)-1,2-benzisothiazol-5-yl]-1-methyl-6-(trifluoromethyl)-2,4(1H,3H)-pyrimidinedione, acetate ester]
[1]; [20]
  herbicidal effect rating, ECHORC: 2.0
[1]; [21]
  herbicidal effect rating, ECHORC: 3.5
[1]; [10]
  herbicidal effect rating, ECHORC: 4.5
[1]; [11]
  herbicidal effect rating, ECHORC: 7.5
Sagittaria pygmaea, L.; [20]
  herbicidal effect rating, SAGPY: 0.0
Sagittaria pygmaea, L.; [21]
  herbicidal effect rating, SAGPY: 0.0
Sagittaria pygmaea, L.; [10]
  herbicidal effect rating, SAGPY: 2.0
Sagittaria pygmaea, L.; [11]
  herbicidal effect rating, SAGPY: 9.0
Cyperus iria; [20]
  herbicidal effect rating, CYPIR: 4.0
Cyperus iria; [21]
  herbicidal effect rating, CYPIR: 6.0
Cyperus iria; [10]
  herbicidal effect rating, CYPIR: 8.0
Cyperus iria; [11]
  herbicidal effect rating, CYPIR: 9.0
[2]; [20]
  herbicidal effect rating, MOOVA: 8.0
[2]; [21]
  herbicidal effect rating, MOOVA: 9.0
[2]; [10]
  herbicidal effect rating, MOOVA: 9.0
[2]; [11]
  herbicidal effect rating, MOOVA: 9.0
[3]; [20]
  herbicidal effect rating, CYPSE: 0.0
[3]; [21]
  herbicidal effect rating, CYPSE: 0.0
[3]; [10]
  herbicidal effect rating, CYPSE: 2.0
[3]; [11]
  herbicidal effect rating, CYPSE: 7.0

## Cn1c(C(F)(F)F)cc(=O)n(-c2ccc3snc(C(SCCO)SCCO)c3c2)c1=O [Example 419, 1,2-Benzisothiazole-3-carboxaldehyde, 5-[3,6-dihydro-3-methyl-2,6-dioxo-4-(trifluoromethyl)-1(2H)-pyrimidinyl]-, 3-[bis(2-hydroxyethyl)dithioacetal]]
[1]; [5]
  ECHORC: 0.0
[1]; [6]
  ECHORC: 2.0
[1]; [7]
  ECHORC: 7.0
Cyperus iria; [5]
  CYPIR: 0.0
Cyperus iria; [6]
  CYPIR: 3.0
Cyperus iria; [7]
  CYPIR: 6.0
[2]; [5]
  MOOVA: 0.0
[2]; [6]
  MOOVA: 4.0
[2]; [7]
  MOOVA: 5.0
[3]; [5]
  CYPSE: 0.0
[3]; [6]
  CYPSE: 0.0
[3]; [7]
  CYPSE: 0.0
